From EP0377044B1, “PROTECTIVE AGENT FOR RADIATION HAZARD” (MITSUI TOATSU CHEMICALS, Inc., priority 1988, dated 1989)
Square brackets hold non-standard residues; d marks the D form. Peptide text beside a SMILES is read from it. pGlu = O=C1CC[C@@H](C(=O)O)N1

How the values were obtained:
[1] = test system: mice irradiated with 900R X-rays; test: Survival of mice after whole body irradiation with 900R X-rays; type: in vivo
Protocol: (§1) Male, 10 week-old C3H/He mice were used and groups of 10 - 15 animals each were prepared.
(§2) The mice were subjected to whole body irradiation for 8 minutes using a X-radiation unit (manufactured by Shimazu Seisaku-sho, Shin-Ai 250 II). These animals received, once per day, subcutaneous administration of 100 µg of FTS·CH₃COOH·2H₂O as used in Example 1 for consecutive 14 days. For a pre-administered group, the administration started two days before the irradiation. For a post-administered group, the first administration was effected immediately after the irradiation. As control groups, one group which received only once subcutaneous administration of 1 KE of Picibanil immediately after the irradiation and another group which received every day administration of physiological saline were prepared.
In the same manner as in Experimental Example 1, mice were subcutaneously administered, after X-radiation for 9 minutes, with 100 µg/day of FTS·CH₃COOH·2H₂O, once a day and twelve times in all, i.e. on the zero, 1st, 2nd, 3rd, 4th, 5th, 7th, 8th, 9th, 10th, 11th and 12th days.

[2] = test system: mice irradiated with 800R X-rays; test: Survival of mice after whole body irradiation with 800R X-rays; type: in vivo, C3H/He mice; details: for The number of days and survivals after X-radiation 10 (days) / The number of days and survivals after X-radiation 11 (days) / The number of days and survivals after X-radiation 12 (days) / The number of days and survivals after X-radiation 13 (days) / The number of days and survivals after X-radiation 14 (days) / The number of days and survivals after X-radiation 15 (days) / The number of days and survivals after X-radiation 16 (days) / The number of days and survivals after X-radiation 17 (days) / The number of days and survivals after X-radiation 18 (days) / The number of days and survivals after X-radiation 19 (days) / The number of days and survivals after X-radiation 20 (days) / The number of days and survivals after X-radiation 25 (days) / The number of days and survivals after X-radiation 30 (days): 14 days; for The number of days and survivals after X-radiation 10 (days): day 10, 15 animals used; for The number of days and survivals after X-radiation 11 (days): day 11, 15 animals used; for The number of days and survivals after X-radiation 12 (days): day 12, 15 animals used; for The number of days and survivals after X-radiation 13 (days): day 13, 15 animals used; for The number of days and survivals after X-radiation 14 (days): day 14, 15 animals used; for The number of days and survivals after X-radiation 15 (days): day 15, 15 animals used; for The number of days and survivals after X-radiation 16 (days): day 16, 15 animals used; for The number of days and survivals after X-radiation 17 (days): day 17, 15 animals used; for The number of days and survivals after X-radiation 18 (days): day 18, 15 animals used; for The number of days and survivals after X-radiation 19 (days): day 19, 15 animals used; for The number of days and survivals after X-radiation 20 (days): day 20, 15 animals used; for The number of days and survivals after X-radiation 25 (days): day 25, 15 animals used; for The number of days and survivals after X-radiation 30 (days): day 30, 15 animals used
Protocol: as §1, §2

[3] = post-administration 100 µg s.c. once per day, from immediately after irradiation
[4] = pre-administration 100 µg s.c. once per day, from two days before irradiation

C[C@H](NC(=O)[C@@H]1CCC(=O)N1)C(=O)N[C@@H](CCCCN)C(=O)N[C@@H](CO)C(=O)N[C@@H](CCC(N)=O)C(=O)NCC(=O)NCC(=O)N[C@@H](CO)C(=O)N[C@@H](CC(N)=O)C(=O)O [medicament, pGlu-Ala-Lys-Ser-Gln-Gly-Gly-Ser-Asn] ([pGlu]AKSQGGSN-OH)
The number of days and survivals after X-radiation 12 (days) ([1]; 900R X-rays, post-administration 100 µg/day s.c., twelve times in all (days 0-5, 7-12), day 12, 15 animals used): 12
The number of days and survivals after X-radiation 13 (days) ([1]; 900R X-rays, post-administration 100 µg/day s.c., twelve times in all (days 0-5, 7-12), day 13, 15 animals used): 7
The number of days and survivals after X-radiation 14 (days) ([1]; 900R X-rays, post-administration 100 µg/day s.c., twelve times in all (days 0-5, 7-12), day 14, 15 animals used): 4
The number of days and survivals after X-radiation 15 (days) ([1]; 900R X-rays, post-administration 100 µg/day s.c., twelve times in all (days 0-5, 7-12), day 15, 15 animals used): 3
The number of days and survivals after X-radiation 16 (days) ([1]; 900R X-rays, post-administration 100 µg/day s.c., twelve times in all (days 0-5, 7-12), day 16, 15 animals used): 2
The number of days and survivals after X-radiation 18 (days) ([1]; 900R X-rays, post-administration 100 µg/day s.c., twelve times in all (days 0-5, 7-12), day 18, 15 animals used): 2
The number of days and survivals after X-radiation 20 (days) ([1]; 900R X-rays, post-administration 100 µg/day s.c., twelve times in all (days 0-5, 7-12), day 20, 15 animals used): 2
The number of days and survivals after X-radiation 21 (days) ([1]; 900R X-rays, post-administration 100 µg/day s.c., twelve times in all (days 0-5, 7-12), day 21, 15 animals used): 1
The number of days and survivals after X-radiation 23 (days) ([1]; 900R X-rays, post-administration 100 µg/day s.c., twelve times in all (days 0-5, 7-12), day 23, 15 animals used): 0
life span extension ([1]; 900R, 100 µg/day s.c. twelve times after X-radiation, summary of Table 2): exhibited a life span extension
dying of mice due to irradiation ([2]; 100 µg s.c. once per day for 14 days, summary of Table 1): clearly prevents or inhibits the dying of mice due to irradiation
The number of days and survivals after X-radiation 10 (days) [2, 3]: 15
The number of days and survivals after X-radiation 11 (days) [2, 3]: 15
The number of days and survivals after X-radiation 12 (days) [2, 3]: 15
The number of days and survivals after X-radiation 13 (days) [2, 3]: 14
The number of days and survivals after X-radiation 14 (days) [2, 3]: 13
The number of days and survivals after X-radiation 15 (days) [2, 3]: 10
The number of days and survivals after X-radiation 16 (days) [2, 3]: 8
The number of days and survivals after X-radiation 17 (days) [2, 3]: 6
The number of days and survivals after X-radiation 18 (days) [2, 3]: 6
The number of days and survivals after X-radiation 19 (days) [2, 3]: 6
The number of days and survivals after X-radiation 20 (days) [2, 3]: 6
The number of days and survivals after X-radiation 25 (days) [2, 3]: 5
The number of days and survivals after X-radiation 30 (days) [2, 3]: 5
The number of days and survivals after X-radiation 10 (days) [2, 4]: 15
The number of days and survivals after X-radiation 11 (days) [2, 4]: 15
The number of days and survivals after X-radiation 12 (days) [2, 4]: 15
The number of days and survivals after X-radiation 13 (days) [2, 4]: 15
The number of days and survivals after X-radiation 14 (days) [2, 4]: 15
The number of days and survivals after X-radiation 15 (days) [2, 4]: 14
The number of days and survivals after X-radiation 16 (days) [2, 4]: 13
The number of days and survivals after X-radiation 17 (days) [2, 4]: 11
The number of days and survivals after X-radiation 18 (days) [2, 4]: 11
The number of days and survivals after X-radiation 19 (days) [2, 4]: 11
The number of days and survivals after X-radiation 20 (days) [2, 4]: 9
The number of days and survivals after X-radiation 25 (days) [2, 4]: 9
The number of days and survivals after X-radiation 30 (days) [2, 4]: 9
